Data taken from patent publication US20260055081A1, “Metal Chelator Compounds, Coordination Complexes, and Methods of Preparation and Use Thereof” (University of Puerto Rico, priority 2022, published 2026).
Counter-ions that a name gives are not always drawn.

Columns and labels:
[1] = tested on: Jurkat Leukemia cell line; test: Jurkat cell viability (MTT assay); format: cell-based; settings: Homo sapiens; Jurkat cell line, 72 h, MTT
Experimental: Jurkat cell culturing and cell viability studies. Jurkat cells are nonadherent cells, and they were cultured in an RPMI-1640 media (supplemented with 10% FBS (v/v) and 1% antibiotic solution (v/v) of penicillin/streptomycin) in non-tissue-culture treated 25 mL flasks according to the known protocol provided by the supplier ATCC. The cell passaging was done at 70% confluency by taking 3 mL of cells and diluting to 25 mL of fresh media. The cells were incubated at 37° C. in 5% CO2 atmosphere.
Jurkat cytotoxicity of DefNEtTrp (6), Def (5), NEtTrp (4), Trp, and 1:1 combinations of 5 with 4 and 5 with Trp was determined by the colorimetric 3-(4,5-dimethylthiazol-2-yl)-2,5-diphenyltetrazolium bromide (MTT) assay. Incubation conditions were the same in all the steps. Cells in 80-95% confluence (grown in standard circular tissue culture dishes, BD Falcon) were separately seeded into 96-well plates using phenol red free RPMI-1640 media (containing 10% FBS and 1% streptomycin/penicillin) in a volume of 50 μL at a concentration of 5.0×10^5 cells/mL. Following this procedure, the Jurkat cells were treated immediately. Stock solution of the compounds were first prepared in DMF at 5 mM and stored at 4° C. for up to 30 days. The stock solution was diluted to specific concentrations using 1×PBS (0.2-20 μM) while DMF was maintained at 1% (v/v). 50 μL of diluted solutions were added in all cell containing wells with at least six replicates per concentration (n=6). The final percentage (v/v) of DMF was 0.5%. The cells were also co-treated with 5 with 4 and 5 with Trp in a 1:1 mole equivalent ratio over the same concentration range but as a combined concentration of both compounds. Control wells in the plates consisted of one lane of cells treated with media alone including 0.5% DMF (v/v) as the measure of 100% viable cell growth in the media. Another control lane consisted of no cells with media including 0.5% DMF (v/v) as a measure of the background with no viable cells. The plates were incubated for 72 h. At 4 h before completion of the incubation time, 25 μL of MTT solution (sterile filtered 5 mg/mL solution, dissolved in 1×PBS buffer) was added to each well. During addition of the MTT solution, the plates were protected from light. After completion a 50 μL portion of 4% (w/v) SDS solution (sterile filtered, dissolved in Tris buffer 1M, pH=10) was added to each well and incubated to solubilize formazan crystals after MTT cell labeling. The absorbance of each well was measured at 570 nm (absorbance of the formazan product at pH >10.0) and 800 nm (as a background correction) using a Tecan plate reader. The absorbance of all wells was compared to the absorbance of the untreated cells with the MTT set as the 100% viable cell standard and the absorbance of the no cell control set as the 0% viable cell standard. Nonlinear regression in GraphPad Prism 8 was utilized to fit the growth curve over the various drug concentrations to determine the half-maximal inhibitory concentration (IC50). All cell viability experiments, including non-Jurkat cells, were repeated at least once for biological duplicates. To confirm cell death at the higher concentration dosages of the compounds and combinations, dead cells were blue stained with trypan blue and visually inspected under the microscope.

red blood cells = test: CO-ADD hemolysis assay; format: cell-based, human; settings: for hemolysis behavior relative to DefNEtTrp (minor hemolysis): human red blood cells
Experimental: CO-ADD hemolysis assay. Dry compounds ranging from 1-2 mg were delivered to the CO-ADD. The compounds were solubilized to a stock concentration of 10 mg/mL in DMSO. Samples were serially diluted 1:2 fold in water to final testing concentrations of […] while keeping the final DMSO concentration to a maximum of 0.32% (v/v). Each sample concentration was prepared in polypropylene 384-well plates (Corning 3657) for hemolysis assays, all in two duplicate plates (n=2). All sample preparation was conducted using liquid handling robots. Human whole blood (Australian Red Cross) was washed three times with three volumes of 0.9% NaCl (w/v) and resuspended in a concentration of […], determined by manual cell count in a Neubauer hemocytometer. Washed cells were added to the compound-containing plates for a final volume of 50 μL. After a 10 min shake on a plate shaker the plates were then incubated for 1 h at 37° C. After incubation, the plates were centrifuged at 1000 g for 10 min to pellet cells and debris, 25 μL of the supernatant was then transferred to reading plates (384 well, polystyrene plated (PS), Corning CLS3680), with hemolysis determined by measuring the supernatant absorbance at […] (OD405) using a Tecan M1000 Pro monochromator plate reader. HC10 and HC50 (concentration at 10% and 50% hemolysis, respectively) were calculated by curve fitting the inhibition values vs. log(concentration) using a sigmoidal dose-response function with variable fitting values for the top, bottom, and slope. The maximal percentage of hemolysis is reported as Dmax. Hemolysis samples are classified by HC10≤32 μg/mL. […] Melittin was used in 8 concentrations in 2-fold serial dilutions with 50 µg/mL being the highest concentration.

Jurkat cells = test: Apoptosis mechanistic cell viability study (Q-VD-OPh); format: cell-based, human; settings: 10 μM Q-VD-OPh pretreatment, 2 μM cisplatin, 72 h
Experimental: Apoptosis mechanistic cell viability study. Jurkat cells were seeded into 96-well plates, as indicated in the MTT assay described above. The cells were treated with 10 μM of the apoptosis inhibitor Q-VD-OPh (Q-V-O). Another group of cells were treated with media alone. After 1 h incubation, half of the cells supplemented with Q-V-O were treated with 2 μM DefNEtTrp or 2 μM cisplatin, as positive control, while the other half was treated with media alone. The final percentage of DMF was maintained at 0.5% (v/v). The MTT assay was performed with these samples (n=6). A student t-test was performed to evaluate the difference in the viability of cells treated with DefNEtTrp or cisplatin and supplemented with and without Q-V-O.

SMILES | IC50 [1] | hemolysis behavior relative to DefNEtTrp (minor hemolysis) (red blood cells) | HC10 and HC50 values (red blood cells; positive hemolytic control) | antiproliferative activity when cells are pretreated with Q-VD-OPh (Jurkat cells)
O=C(O)c1ccc(-n2nc(-c3ccccc3O)nc2-c2ccccc2O)cc1 [Def, deferasirox, reference compound] | 2.6 ± 0.15 µM | comparable |  | 
CC[C@H](C)[C@H](NC(=O)CN)C(=O)NCC(=O)N[C@@H](C)C(=O)N[C@H](C(=O)N[C@@H](CC(C)C)C(=O)N[C@@H](CCCCN)C(=O)N[C@H](C(=O)N[C@@H](CC(C)C)C(=O)N[C@H](C(=O)N[C@H](C(=O)NCC(=O)N[C@@H](CC(C)C)C(=O)N1CCC[C@H]1C(=O)N[C@@H](C)C(=O)N[C@@H](CC(C)C)C(=O)N[C@H](C(=O)N[C@@H](CO)C(=O)N[C@@H](Cc1c[nH]c2ccccc12)C(=O)N[C@H](C(=O)N[C@@H](CCCCN)C(=O)N[C@@H](CCCNC(=N)N)C(=O)N[C@@H](CCCCN)C(=O)N[C@@H](CCCNC(=N)N)C(=O)N[C@@H](CCC(N)=O)C(=O)N[C@@H](CCC(N)=O)C(N)=O)[C@@H](C)CC)[C@@H](C)CC)[C@@H](C)O)[C@@H](C)O)C(C)C)C(C)C [Melittin] |  |  | within the expected range | 
NCCNC(=S)N/N=C/c1ncccc1N [NEtTrp, nitrogen ethyl triapine dihydrochloride] | 5.9 ± 0.29 µM | comparable |  | 
NC(=S)NN=Cc1ncccc1N [Trp, 3-aminopyridine-2-carboxaldehyde-thiosemicarbazone, reference compound] | 1.1 ± 0.04 µM | comparable |  | 
N.N.[Cl][Pt][Cl] [cisplatin, reference compound] |  |  |  | less antiproliferative activity
